Reference: the NIST ThermoML archive (doi:10.1021/acs.jced.5b00326)
Where “and” joins values, the source holds several entries; their conditions need not be identical. Equal entries are not always repeated.

Assay: mn = molality of the nth substance listed, in mol/kg
Conditions: Liquid; for speed of sound: 100 kPa, Sing-around technique in a fixed-path interferometer; for mass density: 101 kPa, Vibrating tube method

CCCCCCn1cc[n+](C)c1.[Cl-] [1-hexyl-3-methylimidazolium chloride] + O
speed of sound, Frequency=3 MHz
Conditions | 288.15 K | 293.15 K | 298.15 K | 303.15 K | 308.15 K
m1 = 0.01 | 1474.3 m/s and 1468.6 m/s | 1484.6 m/s and 1490.1 m/s | 1498.7 m/s and 1505 m/s | 1511 m/s and 1517 m/s | 1521.3 m/s and 1525.1 m/s
m1 = 0.03 | 1474.3 m/s | 1490.1 m/s | 1505 m/s | 1517 m/s | 1525.1 m/s

mass density [kg/m3]
Conditions | 288.15 K | 293.15 K | 298.15 K | 303.15 K | 308.15 K
m1 = 0.01 | 999.911 | 999.007 | 997.841 | 996.436 | 994.818
m1 = 0.03 | 1000.17 | 999.246 | 998.052 | 996.623 | 995.004

O=P([O-])([O-])O.[K+].[K+] [dipotassium hydrogen phosphate] + O
Conditions | mass density, 288.15 K [kg/m3] | mass density, 293.15 K [kg/m3] | mass density, 298.15 K [kg/m3] | mass density, 303.15 K [kg/m3] | mass density, 308.15 K [kg/m3] | speed of sound, 288.15 K [m/s] | speed of sound, 293.15 K [m/s] | speed of sound, 298.15 K [m/s] | speed of sound, 303.15 K [m/s] | speed of sound, 308.15 K [m/s]
m1 = 0.01907 | 1001.68 | 1000.76 | 999.574 | 998.164 | 996.53 | 1466.9 | 1484.8 | 1499.7 | 1514.5 | 1522.3
m1 = 0.04894 | 1005.7 | 1004.75 | 1003.53 | 1002.09 | 1000.43 | 1471.1 | 1489 | 1503.9 | 1518.7 | 1526.5
m1 = 0.06838 | 1008.31 | 1007.35 | 1006.11 | 1004.65 | 1002.97 | 1473.8 | 1491.8 | 1506.6 | 1521.5 | 1529.3
m1 = 0.09992 | 1012.56 | 1011.57 | 1010.29 | 1008.79 | 1007.09 | 1478.3 | 1496.2 | 1511.1 | 1525.9 | 1533.7
m1 = 0.1992 | 1025.92 | 1024.84 | 1023.44 | 1021.85 | 1020.05 | 1492.2 | 1510.2 | 1525 | 1539.9 | 1547.7
m1 = 0.2993 | 1039.39 | 1038.23 | 1036.7 | 1035.01 | 1033.13 | 1506.3 | 1524.2 | 1539.1 | 1554 | 1561.8
m1 = 0.3965 | 1052.47 | 1051.22 | 1049.58 | 1047.79 | 1045.82 | 1520 | 1537.9 | 1552.8 | 1567.6 | 1575.4
m1 = 0.4942 | 1065.63 | 1064.29 | 1062.53 | 1060.65 | 1058.58 | 1533.8 | 1551.7 | 1566.5 | 1581.4 | 1589.2
m1 = 0.6 | 1079.87 | 1078.43 | 1076.55 | 1074.56 | 1072.4 | 1548.6 | 1566.6 | 1581.4 | 1596.3 | 1604.1
m1 = 0.6969 | 1092.92 | 1091.39 | 1089.39 | 1087.3 | 1085.06 | 1562.3 | 1580.2 | 1595.1 | 1609.9 | 1617.7
m1 = 0.7929 | 1105.83 | 1104.22 | 1102.11 | 1099.92 | 1097.59 | 1575.8 | 1593.7 | 1608.6 | 1623.4 | 1631.2
m1 = 0.8916 | 1119.12 | 1117.41 | 1115.18 | 1112.9 | 1110.48 | 1589.7 | 1607.6 | 1622.5 | 1637.3 | 1645.1
m1 = 0.9907 | 1132.46 | 1130.67 | 1128.32 | 1125.93 | 1123.43 | 1603.6 | 1621.5 | 1636.4 | 1651.2 | 1659

O=P([O-])([O-])O.[Na+].[Na+] [disodium hydrogen phosphate] + O
speed of sound [m/s], Frequency=3 MHz
Conditions | 288.15 K | 293.15 K | 298.15 K | 303.15 K | 308.15 K
m1 = 0.02076 | 1467.8 | 1485.6 | 1500.3 | 1515 | 1522.8
m1 = 0.04991 | 1472.7 | 1490.4 | 1505 | 1519.3 | 1527.1
m1 = 0.07047 | 1476.2 | 1493.8 | 1508.3 | 1522.4 | 1530.2
m1 = 0.1014 | 1481.5 | 1498.9 | 1513.2 | 1527.1 | 1534.9
m1 = 0.1983 | 1497.9 | 1514.9 | 1528.8 | 1541.6 | 1549.4
m1 = 0.2992 | 1515.1 | 1531.5 | 1544.9 | 1556.8 | 1564.5
m1 = 0.394 | 1531.2 | 1547.2 | 1560.1 | 1571 | 1578.8
m1 = 0.4957 | 1548.5 | 1564 | 1576.4 | 1586.2 | 1594
m1 = 0.5971 | 1565.8 | 1580.7 | 1592.6 | 1601.5 | 1609.3
m1 = 0.6947 | 1582.4 | 1596.8 | 1608.2 | 1616.1 | 1623.9
m1 = 0.7942 | 1599.3 | 1613.3 | 1624.2 | 1631 | 1638.8
m1 = 0.876 | 1613.2 | 1626.8 | 1637.3 | 1643.3 | 1651.1
m1 = 0.976 | 1630.2 | 1643.3 | 1653.3 | 1658.3 | 1666.1

mass density [kg/m3]
Conditions | 288.15 K | 293.15 K | 298.15 K | 303.15 K | 308.15 K
m1 = 0.02076 | 1001.71 | 1000.78 | 999.59 | 998.178 | 996.536
m1 = 0.04991 | 1005.35 | 1004.39 | 1003.16 | 1001.72 | 1000.04
m1 = 0.07047 | 1007.92 | 1006.93 | 1005.68 | 1004.22 | 1002.52
m1 = 0.1014 | 1011.78 | 1010.76 | 1009.47 | 1007.97 | 1006.24
m1 = 0.1983 | 1023.89 | 1022.75 | 1021.33 | 1019.74 | 1017.89
m1 = 0.2992 | 1036.51 | 1035.25 | 1033.7 | 1032.01 | 1030.03
m1 = 0.394 | 1048.36 | 1046.99 | 1045.31 | 1043.53 | 1041.44
m1 = 0.4957 | 1061.07 | 1059.58 | 1057.77 | 1055.88 | 1053.67
m1 = 0.5971 | 1073.75 | 1072.14 | 1070.2 | 1068.21 | 1065.88
m1 = 0.6947 | 1085.95 | 1084.21 | 1082.15 | 1080.06 | 1077.61
m1 = 0.7942 | 1098.39 | 1096.54 | 1094.34 | 1092.15 | 1089.58
m1 = 0.876 | 1108.62 | 1106.66 | 1104.36 | 1102.1 | 1099.43
m1 = 0.976 | 1121.11 | 1119.04 | 1116.61 | 1114.24 | 1111.45
